According to PubChem BioAssay AID1985 (Southern Research Specialized Biocontainment Screening …, 2009):

tested on: S. Typhi PhoP-promoter GFP reporter, fluorescence, 4 h; test: PhoP regulon inhibitor project modified counter assay, GFP fluorescence readout, dose response (AID 1985)

SMILES | IC50
NC1CCN(c2c(F)cc3c(=O)c(C(=O)O)cn(C4CC4)c3c2Cl)C1 (stereo not given) | < 0.23 µM
CS(=O)(=O)c1ccc([C@@H](O)[C@@H](CF)NC(=O)C(Cl)Cl)cc1 | 4.74 µM
CCCCCCCCCCC[N+](C)(C)CC/C=C1/c2ccccc2Sc2ccc(Cl)cc21 | 31.4 µM
O=C(Oc1ccccc1)c1cc2ccccc2o1 | 76.2 µM
CCCCC(=O)NC(=S)NNC(=O)CC | 50.2 µM
COc1ccc(NC2=NC3(CCCCC3)N=C(N)N2)cc1 | 141 µM
Cc1ccc(-c2ccccc2NC(=O)CS(=O)CC(=O)Nc2ccc(C)c(Cl)c2)o1 (stereo not given) | 46.5 µM
C#CCOCCOCCOCCNc1nc(N2CCN(C(=O)[C@H]([C@@H](C)CC)n3cc([C@@H](N)Cc4ccc(O)cc4)nn3)CC2)nc(N2CCN(C(=O)[C@H](Cc3cc4ccccc4[nH]3)n3cc([C@@H](N)CC(C)C)nn3)CC2)n1 | 150 µM
CCN(CC)c1ccc(CNc2nc3ccccc3n2CCN2CCCCC2)cc1 | 145 µM
CO[C@@]1(NC(=O)Cc2cccs2)C(=O)N2C(C(=O)O)=C(COC(N)=O)CS[C@@H]21 | 40.5 µM
O=C(CSc1nc2ccccc2s1)N/N=C/c1cc([N+](=O)[O-])ccc1O | 44 µM
O=c1[nH]cc(N=Cc2cc([N+](=O)[O-])ccc2O)c(=O)[nH]1 | 39.7 µM
CCN(CC)c1ccc(/C=N/NC(=O)c2ccc3nc[nH]c3c2)c(O)c1 | 46.6 µM
Nc1nc(N)c(Cc2ccc(Cl)cc2Cl)c(N)n1 | 103 µM
O=C(NC(=S)NNC(=O)c1cnccn1)c1ccc(F)cc1 | 25.1 µM
C#CCOCCOCCOCCNc1nc(N2CCN(C(=O)CCCCCCCCCCNC(=O)[C@H](CCCCN)n3cc(C)nn3)CC2)nc(N2CCN(C(=O)CCCCCCCCCCNC(=O)[C@H](CCCN=C(N)N)n3cc(C[C@@H](C)CC)nn3)CC2)n1 | 31.9 µM
COc1cccc2c(=O)c(C(=O)O)c[nH]c12 | 106 µM
Cc1cc(C(C)(C)CC(C)(C)C)ccc1OCCOCC[N+](C)(C)Cc1ccccc1 | 31.6 µM
Fc1ccc(Nc2nc(NCc3ccco3)c3ccccc3n2)cc1 | 15.1 µM
CN1CCN(Cc2cc(COCc3ccccc3)c3cccnc3c2O)CC1 | 62.9 µM
CCn1cc(C(=O)NCCCN(C)C)c(=O)c2cc(F)c(N3CCN(C)CC3)cc21 | 35.5 µM
Nc1nc(Nc2cccc(F)c2)nc2ccccc12 | 54 µM
Cc1ccc2c(c1)C1CN(C)CCC1N2Sc1ccccc1[N+](=O)[O-] (stereo not given) | 135 µM
C#CCOCCOCCOCCNc1nc(N2CCN(C(=O)[C@H](Cc3cc4ccccc4[nH]3)n3cc([C@@H](N)CC(C)C)nn3)CC2)nc(N2CCN(C(=O)[C@H](Cc3cc4ccccc4[nH]3)n3cc([C@@H](N)CC(C)C)nn3)CC2)n1 | 67.5 µM
CCOc1ccc(OCCSc2nc3ccccc3[nH]2)cc1 | 106 µM

SMILES | IC50
O=C(NNc1nc2ccc(F)cc2s1)c1cccc(F)c1 | 148 µM
COc1c(N2CCN(C(=S)NC3CC4CCC3C4)C(C)C2)c(F)cc2c(=O)c(C(=O)O)cn(C3CC3)c12 (stereo not given) | 1.11 µM
Cc1ccc(C(=O)N/C(=C\c2ccc(-c3ccc(Br)cc3)o2)C(=O)NCCCN(C)C)cc1 | 66.3 µM
O=C(N/N=C/c1cc(Br)ccc1O)c1ccncc1 | 29.9 µM
O=C(NC(=S)NNC(=O)c1ccccc1O)c1ccco1 | 23.8 µM
CC1=NOC(=O)/C1=C/c1ccc(O)cc1 | 117 µM
CNCC[C@H](Oc1cccc2ccccc12)c1cccs1 | 106 µM
CCn1cc(C(=O)O)c(=O)c2cc(F)c(N3CCN(C(=O)Nc4ccccc4)CC3)cc21 | 21.1 µM
Cc1cc2nc(C3CCN(CC4COc5ccccc5O4)CC3)[nH]c2cc1C (stereo not given) | 15.2 µM
CC[C@@H](C)[C@H](CN[C@H](CNC)C(C)C)NC[C@@H](C)c1ccc(CC(C)C)cc1 | 61 µM
CN1CCc2c(sc(NC(=O)c3ccc([N+](=O)[O-])o3)c2C(N)=O)C1 | 11 µM
Cc1occc1C(=O)N/N=C/C=C/c1ccccc1 | 41.6 µM
CCOc1ccc(/C=N/NC(=O)c2[nH]ncc2Br)c(O)c1 | 65.4 µM
CCCCCc1ccc(OCCCC[n+]2cccc(C)c2)c(CCCCC)c1 | 103 µM
N=c1n(CCN2CCCCC2)c2ccccc2n1CC(O)COc1ccccc1 (stereo not given) | 90.2 µM
O=C(N/N=C/c1c(O)ccc2ccccc12)c1ccc(CO)nc1 | 80.1 µM
Nc1[nH]ncc1-c1ccccc1 | 31.9 µM
CCCCOc1ccc(CN=C(N)N)cc1Cl | 103 µM
O=C(Nc1ccccc1)c1ccc2nsnc2c1 | < 0.23 µM
O=C(O)c1ccc(N2C(=O)CSC2=S)cc1 | 144 µM
Cc1ccc(C(=O)N/N=C\c2sccc2C)cn1 | 128 µM
COC(=O)N/N=C/c1c[n+]([O-])c2ccccc2[n+]1[O-] | 101 µM
COc1c2ccccc2nc2ccccc12 | 28.8 µM
Cc1c(Cl)cccc1Nc1nc(NCCO)c2ccccc2n1 | 38.1 µM
Nc1nnnn1/N=C/c1cc([N+](=O)[O-])ccc1O | 91.5 µM

SMILES | IC50
COc1cccc(Nc2nc(NCCO)c3ccccc3n2)c1 | 84.5 µM
Cc1ccc2c(c1)sc(-c1ccc(N(C)C)cc1)[n+]2C | 23.6 µM
COc1cc(CNCCc2ccccc2)cc(Cl)c1OCc1ccccc1 | 78.9 µM
C#CCOCCOCCOCCNc1nc(N2CCN(C(=O)[C@H](Cc3ccc(O)cc3)n3cc([C@@H](N)CC(C)C)nn3)CC2)nc(N2CCN(C(=O)[C@H](Cc3ccc(O)cc3)n3cc([C@@H](N)CC(C)C)nn3)CC2)n1 | 112 µM
CCOC(=O)Cn1c(=N)n(CCOc2ccc3ccccc3c2)c2ccccc21 | 79.1 µM
Cc1nonc1C(=O)N/N=C/c1ccc(O)cc1O | 29.7 µM
Cc1ccsc1/C=N/Nc1ccc(C(=O)O)cc1 | 94.2 µM
O=C(CNC(=O)c1ccccc1)N/N=C/c1ccc([N+](=O)[O-])s1 | 19.5 µM
CCc1ccc2c(c1)Sc1ccccc1CC2N1CCN(C)CC1 (stereo not given) | 76.8 µM
N=c1n(CC(=O)c2ccc(Br)s2)c2ccccc2n1Cc1ccccc1 | 47.2 µM
Cc1ccc(-n2c(-c3ccc(Br)cc3)c[n+]3c2CCc2ccc4cccnc4c2-3)cc1 | 97.5 µM
O[C@@H](c1cc(C(F)(F)F)nc2c(C(F)(F)F)cccc12)[C@H]1CCCCN1 | 90.6 µM
CO[C@H]1C=CO[C@@]2(C)Oc3c(C)c(O)c4c(O)c(c(C=NN5CCN(C)CC5)c(O)c4c3C2=O)NC(=O)C(C)=CC=C[C@H](C)[C@H](O)[C@@H](C)[C@@H](O)[C@@H](C)[C@H](OC(C)=O)[C@@H]1C | 23.8 µM
O=[N+]([O-])c1cc(O)c2ncccc2c1 | 12.1 µM
COC(=O)C1C(O)C(C)C(O)C(C)/C=C\C=C(/C)C(=O)Nc2c(C)c(OC(C)=O)c3c(c2O)C(=O)C(C)=C2OCOC(=C23)/C(C)=C/C(C)(O)C(O)C(C)C1O (stereo not given) | 24.4 µM
O=C(NNC(=S)NC(=O)c1ccccc1)c1ccc(O)cc1 | 71.1 µM
CCCCCOc1ccc(CSC(=N)N)cc1[N+](=O)[O-] | 20.9 µM
O=C(N/N=C/c1cccs1)c1ccc2nc[nH]c2c1 | 136 µM
CCn1cc(C(=O)O)c(=O)c2cc(F)c(N3CCN(C(=S)NC(=O)c4ccc(Br)cc4)CC3)cc21 | 31.2 µM
O=C(Oc1c(Cl)cc(Cl)c2cccnc12)c1ccco1 | 11.9 µM
CC(NCc1ccccc1O)C12CC3CC(CC(C3)C1)C2 (stereo not given) | 81.4 µM
O=S(=O)(Nc1ncccn1)c1ccc(NC(=S)Nc2ccc(Cl)cc2)cc1 | 97.1 µM
O=C(CNCCC1=CCCCC1)Nc1ccc(N2CCCCCC2)cc1 | 54.2 µM
OCCN1CCN(C2CCC(c3ccc(F)cc3)c3ccc(F)cc32)CC1 (stereo not given) | 67.7 µM
CC(=O)Oc1ccccc1C(=O)Nc1ncc([N+](=O)[O-])s1 | 149 µM
